Values quoted from earlier work in patent US20060110359A1, “Cellular delivery of natriuretic peptides” (priority 2002, published 2006).

How the values were obtained:
brain edema [1] = settings: into rat lateral ventricle or intravenously
brain edema [2] = settings: for effect on brain edema: experimental brain hemorrhage in rats

Structure (SMILES)	brain water and sodium accumulation (brain edema [1])	brain water and sodium (brain edema [2]; given after a 4-hour delay, 24 hours after hemorrhage, rats)	effect on brain edema (brain edema [2])
CC[C@H](C)[C@@H]1NC(=O)[C@H](CCCNC(=N)N)NC(=O)[C@H](CC(=O)O)NC(=O)[C@H](CCSC)NC(=O)[C@H](CCCNC(=N)N)NC(=O)CNC(=O)CNC(=O)[C@H](Cc2ccccc2)NC(=O)[C@@H](NC(=O)[C@H](CO)NC(=O)[C@H](CO)NC(=O)[C@H](CCCNC(=N)N)NC(=O)[C@H](CCCNC(=N)N)NC(=O)[C@H](CC(C)C)NC(=O)[C@@H](N)CO)CSSC[C@@H](C(=O)N[C@@H](CC(N)=O)C(=O)N[C@@H](CO)C(=O)N[C@@H](Cc2ccccc2)C(=O)N[C@@H](CCCNC(=N)N)C(=O)N[C@@H](Cc2ccc(O)cc2)C(=O)O)NC(=O)CNC(=O)[C@H](CC(C)C)NC(=O)CNC(=O)[C@H](CO)NC(=O)[C@H](CCC(N)=O)NC(=O)[C@H](C)NC(=O)CNC1=O [ANP, atrial natriuretic peptide]	inhibit brain water and sodium accumulation	significantly reduced	
OC[C@@H](O)[C@@H](O)[C@H](O)[C@H](O)CO [mannitol]			Neither mannitol nor 8-bromo-cGMP affected brain edema
Nc1nc2c(nc(Br)n2[C@@H]2O[C@@H]3COP(=O)(O)O[C@H]3[C@H]2O)c(=O)[nH]1 [8-bromo-cGMP]			Neither mannitol nor 8-bromo-cGMP affected brain edema
